# Experiments:
# [1] = test system: Canis familiaris; assay: (§1) Compound was evaluated for diuretic activity, in female mongrel dogs by measuring volume of urine, after iv administration of 5 mg/kg (control/compound treatment results) Control = 1; type: ADME, organism-based, Canis lupus familiaris; set-up: dose 5 mg/kg, route intravenous; settings: dog, in vivo
# [2] = species on record: Canis familiaris; assay: Volume of urine in dog; type: ADME, organism-based, Canis lupus familiaris; settings: in vivo
# [3] = volume of urine at 3 mg/kg; type: ADME, organism-based; set-up: dose 3 mg/kg; settings: in vivo
# [4] = volume of urine at 81 mg/kg; type: ADME, organism-based; set-up: dose 81 mg/kg; settings: in vivo
# [5] = volume of urine at 9 mg/kg; type: ADME, organism-based; set-up: dose 9 mg/kg; settings: in vivo
# [6] = test system: Pan troglodytes; assay: (§2) Compound was evaluated for diuretic activity in chimpanzee measured as increase in volume of urine at 1 mg/kg; type: functional
# [7] = test system: Pan troglodytes; assay: Compound was evaluated for diuretic activity in chimpanzee measured as increase in volume of urine at 5 mg/kg; type: functional
# [8] = test system: Pan troglodytes; assay: Compound was evaluated for diuretic activity in chimpanzee measured as clearance of […] and urate after intra venous administration of 1 mg/kg.; type: functional, Urine
# [9] = test system: Pan troglodytes; assay: Compound was evaluated for diuretic activity in chimpanzee measured as clearance of […] and urate after peroral administration of 5 mg/kg; type: functional, Urine; settings: route oral
# [10] = test system: Pan troglodytes; assay: (§3) Compound was evaluated for diuretic activity in chimpanzee measured as increase in the number of microequivalents of Na+ /min at 1 mg/kg; type: functional, Urine
# [11] = test system: Pan troglodytes; assay: Compound was evaluated for diuretic activity in chimpanzee measured as increase in the number of microequivalents of Na+ /min at 5 mg/kg; type: functional, Urine
# [12] = test system: Pan troglodytes; assay: (§4) Compound was evaluated for diuretic activity in chimpanzee measured as increase in the number of microequivalents of Cl- electrolyte/min at 1 mg/kg; type: functional, Urine
# [13] = test system: Pan troglodytes; assay: Compound was evaluated for diuretic activity in chimpanzee measured as increase in the number of microequivalents of Cl- electrolyte/min at 5 mg/kg; type: functional, Urine
# [14] = test system: Pan troglodytes; assay: Compound was evaluated for diuretic activity in chimpanzee measured as increase in the number of microequivalents of K+ /min at 1 mg/kg; type: functional, Urine
# [15] = test system: Canis familiaris; assay: Compound was evaluated for diuretic activity, in female mongrel dogs by measuring amount of K+ in urine after iv administration of 5 mg/kg (control/compound treatment results) Control = 13; type: functional, Canis lupus familiaris
# [16] = test system: Canis familiaris; assay: Compound was evaluated for diuretic activity, in female mongrel dogs by measuring amount of Cl- in urine after iv administration of 5 mg/kg (control/compound treatment results) Control = 6; type: functional, Canis lupus familiaris
# [17] = test system: Pan troglodytes; assay: Compound was evaluated for diuretic activity in chimpanzee measured as increase in the number of microequivalents of K+ /min at 5 mg/kg; type: functional, Urine
# [18] = test system: Canis familiaris; assay: Compound was evaluated for diuretic activity, in female mongrel dogs by measuring amount of Na+ in urine after iv administration of 5 mg/kg (control/compound treatment results) Control = 79; type: functional, Canis lupus familiaris
# [19] = test system: Canis familiaris; assay: Compound was evaluated for diuretic activity, administered orally in female mongrel dogs (5 mg/kg) measured as milliequivalents of Cl-; type: functional, Canis lupus familiaris, Urine
# [20] = test system: Canis familiaris; assay: Compound was evaluated for diuretic activity, administered orally in female mongrel dogs (5 mg/kg) measured as milliequivalents of K; type: functional, Canis lupus familiaris, Urine
# [21] = test system: Canis familiaris; assay: Compound was evaluated for diuretic activity, administered orally in female mongrel dogs (5 mg/kg) measured as milliequivalents of Na; type: functional, Canis lupus familiaris, Urine
# [22] = test system: Rattus norvegicus; assay: Compound was evaluated for diuretic activity administered orally in female rats measured as milliequivalents of Na+x 100 / cage at 81 mg/kg; type: functional, Urine; settings: route oral
# [23] = test system: Rattus norvegicus; assay: Compound was evaluated for diuretic activity administered orally in female rats measured as milliequivalents of Na+x 100 / cage at 9 mg/kg; type: functional, Urine; settings: route oral
# [24] = test system: Rattus norvegicus; assay: Compound was evaluated for diuretic activity administered orally in female rats measured as milliequivalents of Cl-+x 100 / cage at 27 mg/kg; type: functional, Urine; settings: route oral
# [25] = test system: Rattus norvegicus; assay: Compound was evaluated for diuretic activity administered orally in female rats measured as milliequivalents of Cl-x 100 / cage at 3 mg/kg; type: functional, Urine; settings: route oral
# [26] = test system: Rattus norvegicus; assay: Compound was evaluated for diuretic activity administered orally in female rats measured as milliequivalents of Cl-x 100 / cage at 81 mg/kg; type: functional, Urine; settings: route oral
# [27] = test system: Rattus norvegicus; assay: Compound was evaluated for diuretic activity administered orally in female rats measured as milliequivalents of Cl-x 100 / cage at 9 mg/kg; type: functional, Urine; settings: route oral
# [28] = test system: Rattus norvegicus; assay: Compound was evaluated for diuretic activity administered orally in female rats measured as milliequivalents of K+x 100 / cage at 27 mg/kg; type: functional, Urine; settings: route oral
# [29] = test system: Rattus norvegicus; assay: Compound was evaluated for diuretic activity administered orally in female rats measured as milliequivalents of K+x 100 / cage at 3 mg/kg; type: functional, Urine; settings: route oral
# [30] = test system: Rattus norvegicus; assay: Compound was evaluated for diuretic activity administered orally in female rats measured as milliequivalents of K+x 100 / cage at 81 mg/kg; type: functional, Urine; settings: route oral
# [31] = test system: Rattus norvegicus; assay: Compound was evaluated for diuretic activity administered orally in female rats measured as milliequivalents of K+x 100 / cage at 9 mg/kg; type: functional, Urine; settings: route oral
# [32] = test system: Rattus norvegicus; assay: Compound was evaluated for diuretic activity administered orally in female rats measured as milliequivalents of Na+x 100 / cage at 27 mg/kg; type: functional, Urine; settings: route oral
# [33] = test system: Rattus norvegicus; assay: Compound was evaluated for diuretic activity administered orally in female rats measured as milliequivalents of Na+x 100 / cage at 3 mg/kg; type: functional, Urine; settings: route oral
# [34] = volume of urine at 27 mg/kg; type: ADME, organism-based; set-up: dose 27 mg/kg; settings: in vivo
# [35] = test system: Pan troglodytes; assay: Compound was evaluated for diuretic activity in chimpanzee measured as clearance of […] and urate after intra venous administration of 1 mg/kg; type: functional, Urine
# [36] = test system: Canis familiaris; assay: as §1; type: functional, Canis lupus familiaris
# [37] = test system: Canis familiaris; assay: Compound was evaluated for diuretic activity, in female mongrel dogs by measuring amount of K+ in urine after iv administration of 5 mg/kg (control/compound treatment results) Control = 5; type: functional, Canis lupus familiaris
# [38] = test system: Canis familiaris; assay: Compound was evaluated for diuretic activity, in female mongrel dogs by measuring amount of Na+ in urine after iv administration of 5 mg/kg (control/compound treatment results) Control = 37; type: functional, Canis lupus familiaris
# [39] = test system: Pan troglodytes; assay: as §2; type: ADME, organism-based; set-up: dose 1 mg/kg; settings: in vivo
# [40] = test system: Pan troglodytes; assay: Compound was evaluated for diuretic activity in chimpanzee measured as clearance of […] and urate after intra venous administration of 5 mg/kg.; type: functional, Urine
# [41] = test system: Pan troglodytes; assay: Compound was evaluated for diuretic activity in chimpanzee measured as increase in the number of microequivalents of cl-/min at 5 mg/kg; type: functional, Urine
# [42] = test system: Pan troglodytes; assay: Compound was evaluated for diuretic activity in chimpanzee measured as clearance of […] and urate after intra venous administration of 0. 5 mg/kg.; type: functional, Urine
# [43] = test system: Pan troglodytes; assay: as §3; type: functional, Urine; remark: listed apart in the source
# [44] = test system: Pan troglodytes; assay: Compound was evaluated for diuretic activity in chimpanzee measured as increase in volume of urine at 0.5 mg/kg; type: functional
# [45] = test system: Pan troglodytes; assay: as §4; type: functional, Urine; remark: listed apart in the source
# [46] = test system: Pan troglodytes; assay: Compound was evaluated for diuretic activity in chimpanzee measured as increase in the number of microequivalents of K+ /min at 0.5 mg/kg; type: functional, Urine
# [47] = test system: Pan troglodytes; assay: Compound was evaluated for diuretic activity in chimpanzee measured as increase in the number of microequivalents of Na+ /min at 0.5 mg/kg; type: functional, Urine
Structure (SMILES),Urine volume [2],Increase in volume [6],Increase in volume [7],Delta C urate / delta C insulin [9],Increase [10],Increase [11],Increase [12],Increase [13],Increase [14],Activity [16],Increase [17],Activity [19],Activity [20],Activity [21],also measured
CCC1(CC)C(=O)c2cc(OCC(=O)O)c(C)c(Cl)c2C1=O,570 mL,0.4 mL/min,2.7 mL/min,0.138,25,290,123,285,131,157 u equiv min-1,132,10,5,7,Urine volume [1]: 2 mL/min; Urine volume [3]: 27 mL; Urine volume [4]: 38 mL; Urine volume [5]: 26 mL; Delta C urate / delta C insulin [8]: 0.082; Activity [15]: 27 u equiv min-1; Activity [18]: 259 u equiv min-1; Activity [22]: 251; Activity [23]: 92; Activity [24]: 222; Activity [25]: 82; Activity [26]: 369; Activity [27]: 124; Activity [28]: 62; Activity [29]: 29; Activity [30]: 106; Activity [31]: 43; Activity [32]: 158; Activity [33]: 70; Urine volume [34]: 33 mL
CCC1C(=O)c2cc(OCC(=O)O)c(C)c(C)c2C1=O (configuration not stated),553 mL,1.6 mL/min,1.2 mL/min,0.061,254,194,314,244,41,114 u equiv min-1,30,8,5,6,Delta C urate / delta C insulin [35]: 0.101; Activity [36]: 4 mL/min; Activity [37]: 24 u equiv min-1; Activity [38]: 196 u equiv min-1
CCC1C(=O)c2cc(OC)c(Cl)c(Cl)c2C1=O (configuration not stated),–,–,0.1 mL/min,0.008,3,4,13,–,26,–,27,–,–,–,Increase in volume [39]: 0.1 mL/min; Delta C urate / delta C insulin [40]: 0; Increase [41]: 10
CC1(c2ccccc2)C(=O)c2cc(OCC(=O)O)c(Cl)c(Cl)c2C1=O (configuration not stated),–,0.6 mL/min,–,0.043,–,–,36,–,25,–,–,–,–,–,Delta C urate / delta C insulin [42]: 0.01; Increase [43]: 2; Increase in volume [44]: 0.3 mL/min; Increase [45]: 30; Increase [46]: 31; Increase [47]: 29

# Source: ChEMBL document CHEMBL1122681, “(Acylaryloxy)acetic acid diuretics. 5. [(2-Alkyl- and 2,2-disubstituted-1,3-dioxo-5-indanyl)oxy]acetic acids” (J Med Chem, 1984)
